In brackets after ≈: the same amount, converted by molar mass. Read-outs that look alike come from different tables or passages of the source.
Assays:
HL-60 cells = experiment: cells; conditions: for anti-proliferation effects: HL-60, concentrations up to 100 ng/ml
Method: A given number of cells were cultivated in 96-well plates with serial dilutions of the drugs up to 100 ng/ml. Tubulysin A is used as a positive control, whereas methanol is used as a negative control. After 5 days of incubation the metabolic activities of the cells were measured using MTT-assay as described under the methods section.
The effect of pre-tubulysin 816 and 827 was tested with regard to the growth of other cell lines, including the mouse connective tissues fibroblast L929, the human lung carcinoma cell line A549, the human colon adenocarcinoma cell line SW-480, and the human histiocytic lymphoma cell line U937, in addition to the human myeloid leukemia cell line HL-60.

L929 [1] = experiment: Anti-proliferation MTT assay (Example 2, Table 1); type: cell-based; conditions: L929 mouse connective tissue fibroblast
U937 [2] = experiment: Anti-proliferation MTT assay (Example 2, Table 1); type: cell-based; conditions: U937 human histiocytic lymphoma
COS-7 = experiment: cells; type: cell-based, African green monkey; conditions: COS-7, average of two measurements
Method: (§1) Cytotoxicity testing of pretubulysin (AU827), N-desmethyl-pretubulysin (AU816) and Tubulysin A and D was performed as follows: Cells were seeded at 6×10^3 cells per well of 96-well plates in 180 μl complete medium and directly treated with varying concentrations of (pre-)tubulysins diluted in methanol. Each compound was tested in duplicate as well as the internal methanol control. After 5 d incubation, 20 μl of 5 mg/ml MTT (Thiazolyl blue tetrazolium bromide) in PBS was added per well and it was further incubated for 2 h at 37° C. The medium was then discarded and cells were washed with 100 μl PBS before adding 100 μl 2-propanol/10 N HCl (250:1) in order to dissolve formazan granules.
(§2) The absorbance at 570 nm was measured using a microplate reader (EL808, Bio-Tek Instruments Inc.), and cell viability was expressed as percentage relative to the respective methanol control. IC50 values were obtained by plotting relative growth inhibition in % against the compound concentration on a logarithmic scale. After sigmoidal curve fitting IC50 values can be determined. The IC50[per ml] are shown in the following table (values represent the average of two measurements): […]

L929 [3] = experiment: cells; type: cell-based, mouse; conditions: L929, average of two measurements
Method: as §1, §2

A431 = experiment: cells; type: cell-based, human; conditions: A431, average of two measurements
Method: as §1, §2

A549 = experiment: cells; type: cell-based, human; conditions: A549, average of two measurements
Method: as §1, §2

HEK293T = experiment: cells; type: cell-based, human; conditions: average of two measurements
Method: as §1, §2

HL-60 = experiment: cells; type: cell-based, human; conditions: HL-60, average of two measurements
Method: as §1, §2

HepG2 = experiment: cells; type: cell-based, human; conditions: HepG2, average of two measurements
Method: as §1, §2

K562 = experiment: cells; type: cell-based, human; conditions: K562, average of two measurements
Method: as §1, §2

KB3.1 = experiment: cells; type: cell-based, human; conditions: KB3.1, average of two measurements
Method: as §1, §2

SH-SY5Y = experiment: cells; type: cell-based, human; conditions: average of two measurements
Method: as §1, §2

SW480 = experiment: cells; type: cell-based, human; conditions: SW480, average of two measurements
Method: as §1, §2

U937 [4] = experiment: cells; type: cell-based, human; conditions: U937, average of two measurements
Method: as §1, §2

[5] = tested on: U-2 OS human osteosarcoma cells; experiment: cells; type: cell-based; conditions: average of two measurements
Method: as §1
The absorbance at 570 nm was measured using a microplate reader (EL808, Bio-Tek Instruments Inc.), and cell viability was expressed as percentage relative to the respective methanol control. IC50 values were obtained by plotting relative growth inhibition in % against the compound concentration on a logarithmic scale. After sigmoidal curve fitting IC50 values can be determined. The IC50[per ml] are shown in the following table (values represent the average of two measurements):
Similarly cytotoxicity testing of Pretubulysin-related compounds in U-2 OS human osteosarcoma cells was performed and was further compared with AU 339 and AU 954, compounds mentioned in WO2008/106080 and WO2004/046170. The IC50 values are shown in the following table (values represent the average of two measurements): […]

PtK2 cells = type: cell-based; conditions: 24 hours incubation
Method: Cell staining: Ptk2 cells were seeded on round glass coverslips (13 mm in diameter) in 4-well plates. Cells were incubated with the drugs to the given times as indicated for each experiment. For staining the microtubules and the nuclei, cells were firstly fixed with cold (−20° C.) acetone/methanol (1:1) for 10 min. For labelling the microtubules, cells were incubated with a primary monoclonal antibody against α-tubulin (1:500 Sigam) for 45 min at 37° C., followed by a secondary anti-mouse IgG antibody conjugated with Alexa488 (1:2000; Molecular probes) under the same incubations conditions. The nuclei were stained with DAPI (1 μg/ml in PBS). The cells were washed with phosphate buffer saline (PBS) between incubations. Coverslips were mounted by using Prolong Antifade (Molecular Probes) and imaged through a fluorescence microscope (LSM-Zeiss) with appropriate filter set.
Tubulysin A and D are known to induce de-polymerization of the interphase microtubules of mammalian cells and additionally induce a multi-polar spindle pool in mitotic cells (Khalil, M. et al., Chembiochem. 7, 678-683 (2006); Sasse, F., Menche, D. Nat. Chem. Biol. 3, 87-89 (2007)). Here the effect of pre-tubulysin treatment on the morphologies of microtubules and microtubules related structures in PtK2 cells was tested. PtK2 cells were seeded onto glass cover clips in 4 well plates and cultivated for 24 or 48 hours under growth conditions. The cells were then treated with different concentrations of tubulysin A, tubulysin D, pre-tubulysin-816 or pre-tubulysin-827. The control cells were treated only with equivalent amount of methanol (solvent). The cells were thin incubated for further 24 hours before they were fixed as described under the methods section. Fixed cells were then washed with PBS and finally labeled with anti-α-tubulin primary antibodies followed by anti-mouse-alexa-488 secondary antibodies to visualize the microtubules. The nuclei were stained with DAPI.

cancer cell lines = conditions: growth inhibition of cancer cell lines; cited from earlier work
[6] = Homo sapiens, U2OS, comparison with prior art compounds, read-out: IC50

With `CC[C@H](C)[C@H](NC(=O)[C@H]1CCCCN1C)C(=O)N(C)[C@H](CCc1nc(C(=O)O)cs1)C(C)C` [pre-tubulysin-814] the anti-proliferation effects (HL-60 cells; 5 days, MTT) was “no anti-proliferation effects” and the cytotoxic activity (HL-60 cells; at concentration up to 11 μg/ml, listed as Pre-tub-814) was “did not show any cytotoxic activity”.
Work on `CC[C@H](C)[C@H](NC(=O)[C@H]1CCCCN1C)C(=O)N(COC(=O)CC(C)C)[C@H](C[C@@H](OC(C)=O)c1nc(C(=O)N[C@@H](Cc2ccc(O)cc2)C[C@H](C)C(=O)O)cs1)C(C)C` [Tubulysin A, reference compound] yielded an IC50 (HL-60 cells; HL-60, serial dilutions up to 100 ng/ml, 5 days, MTT) of 0.0019 ng/mL (≈ 0.00225 nM), an IC50 value (HL-60 cells; HL-60 human acute myeloid leukemia (Table 1)) of 0.002 ng/mL (≈ 0.00237 nM) and an IC50 value (L929 [1]) of 0.15 ng/mL (≈ 0.178 nM). It also gave an IC50 value (U937 [2]) of 0.002 ng/mL (≈ 0.00237 nM), an IC50 (COS-7) of 0.0806 ng/mL (≈ 0.0955 nM) and an IC50 (L929 [3]) of 0.21 ng/mL (≈ 0.249 nM). It also gave an IC50 (A431) of 0.1002 ng/mL (≈ 0.119 nM), an IC50 (A549) of 0.0856 ng/mL (≈ 0.101 nM) and an IC50 (HEK293T) of 0.0523 ng/mL (≈ 0.062 nM). It also gave an IC50 (HL-60) of 0.0479 ng/mL (≈ 0.0567 nM), an IC50 (HepG2) of 0.12 ng/mL (≈ 0.142 nM) and an IC50 (K562) of 0.40 ng/mL (≈ 0.474 nM). It also gave an IC50 (KB3.1) of 0.16 ng/mL (≈ 0.19 nM), an IC50 (SH-SY5Y) of 0.21 ng/mL (≈ 0.249 nM) and an IC50 (SW480) of 0.0187 ng/mL (≈ 0.0222 nM). For the same molecule, the IC50 (U937 [4]) was 0.0461 ng/mL (≈ 0.0546 nM), the IC50 [5] was 0.19 ng/mL (≈ 0.225 nM) and the IC50 ([5]; comparison with prior art compounds) was 0.19 ng/mL (≈ 0.225 nM). The “concentration for complete de-polymerization (disappearance) of interphase microtubules” value (PtK2 cells) was 500 pg/mL.
Molecule `CC[C@H](C)[C@H](NC(=O)[C@H]1CCCCN1C)C(=O)N(COC(=O)CC(C)C)[C@H](C[C@@H](OC(C)=O)c1nc(C(=O)N[C@@H](Cc2ccccc2)C[C@H](C)C(=O)O)cs1)C(C)C` [Tubulysin D, reference compound] has an IC50 (COS-7; Chlorocebus sabaeus, read-out: IC50) of 0.0337 ng/mL (≈ 0.0407 nM), an IC50 (L929 [3]; Mus musculus, read-out: IC50) of 0.017 ng/mL (≈ 0.0205 nM) and an IC50 (A431; Homo sapiens, A-431, read-out: IC50) of 0.0119 ng/mL (≈ 0.0144 nM). The IC50 (A549; Homo sapiens, read-out: IC50) was 0.0056 ng/mL (≈ 0.00676 nM), the IC50 (HEK293T; Homo sapiens, HEK-293T, read-out: IC50) was 0.0104 ng/mL (≈ 0.0126 nM) and the IC50 (HL-60; Homo sapiens, read-out: IC50) was 0.0028 ng/mL (≈ 0.00338 nM). The IC50 (HepG2; Homo sapiens, read-out: IC50) was 0.0066 ng/mL (≈ 0.00797 nM), the IC50 (K562; Homo sapiens, read-out: IC50) was 0.0222 ng/mL (≈ 0.0268 nM) and the IC50 (KB3.1; Homo sapiens, KB 3-1, read-out: IC50) was 0.0182 ng/mL (≈ 0.022 nM). It also gave an IC50 (SH-SY5Y; Homo sapiens, read-out: IC50) of 0.0113 ng/mL (≈ 0.0136 nM), an IC50 (SW480; Homo sapiens, read-out: IC50) of 0.0037 ng/mL (≈ 0.00447 nM) and an IC50 (U937 [4]; Homo sapiens, U-937, read-out: IC50) of 0.0025 ng/mL (≈ 0.00302 nM). For the same molecule, the IC50 ([5]; Homo sapiens, U2OS, read-out: IC50) was 0.0342 ng/mL (≈ 0.0413 nM), the IC50 [5, 6] was 0.034 ng/mL (≈ 0.0411 nM) and the “concentration for complete de-polymerization (disappearance) of interphase microtubules” value (PtK2 cells) was 50 pg/mL. The “potency relative to tubulysin A” value (cancer cell lines) was “approximately 10 folds”.
With `CCOC(=O)/C(C)=C/[C@H](Cc1ccccc1)NC(=O)c1csc(CC[C@H](C(C)C)N(C)C(=O)[C@@H](NC(=O)[C@H]2CCCCN2C)[C@@H](C)CC)n1` [AU939] the IC50 [5, 6] was 339 ng/mL (≈ 487 nM).
Molecule `CC[C@H](C)[C@H](NC(=O)[C@H]1CCCCN1C)C(=O)N(C)[C@H](CCc1nc(C(=O)N[C@H](/C=C(\C)C(=O)O)Cc2ccccc2)cs1)C(C)C` [AU954] has an IC50 [5, 6] of 82 ng/mL (≈ 123 nM).
For `CC[C@H](C)[C@H](NC(=O)[C@H]1CCCCN1C)C(=O)N(C)[C@H](CCc1nc(C(=O)N[C@@H](Cc2ccccc2)C(=O)O)cs1)C(C)C` [pre-tubulysin-815], the anti-proliferation effects (HL-60 cells; 5 days, MTT) was “no anti-proliferation effects” and the IC50 (HL-60 cells; Homo sapiens, HL-60) was 700 ng/mL (≈ 1110 nM).
For `CC[C@H](C)[C@H](NC(=O)CN(C)C)C(=O)N(C)[C@H](CCc1nc(C(=O)N[C@H](CCC(=O)O)Cc2ccccc2)cs1)C(C)C` [pre-tubulysin-825], the anti-proliferation effects (HL-60 cells; 5 days, MTT) was “no anti-proliferation effects” and the IC50 (HL-60 cells; Homo sapiens, HL-60) was 600 ng/mL (≈ 974 nM).
